Measured values reported in patent US11241442B2, “Methods of use for TRP channel antagonist-based combination cancer therapies” (President and Fellows of Harvard College, priority 2017, dated 2022).

What was measured:
Format in all cases: cell-based
TRPA1 [1] = target: T1, TRPA1 (Homo sapiens, UniProt O75762); test: Ca2+ responses to carboplatin in HCC1569 cells; conditions: 10 μM AP-18 or 300 nM A-967079
T1 construct: endogenous in cells; host or cells: HCC1569 breast cancer cells (2D culture or 3D spheroids; shGFP or shTRPA1 transduced)
Protocol: (§1) For the measurement of [Ca^2+]i levels in cells cultured in 2D or 3D (in Matrigel), cells were stained with 3.5 μM fura-2-AM (Life Technology) in the presence of 2.5 mM probenecid (Sigma) and 0.02% Pluronic F-127 (Sigma) for 45 min at 37° C. The fura-2 fluorescence was measured in HBS solution containing 1.25 mM probenecid at 37° C. Fluorescence images of the cells were acquired through the Eclipse Ti-E microscope with ORCA-R2 cooled CCD camera and analyzed with Metafluor. The 340:380-nm ratio images were obtained on a pixel-by-pixel basis and were converted to Ca^2+ concentrations by in vivo calibration using 5 μM ionomycin as described previously (Nishida et al., Biochem. Biophys. Res. Commun., 262:350-354, 1999). 3D images are shown as one section from midstructure. For the measurement of [Ca^2+]i levels in cells cultured in suspension, cell clumps were dissociated with trypsin and [Ca^2+]i levels were determined by using Fluo-4 NW Calcium Assay Kit (Molecular Probes). Cells were stained with Fluo-4 according to the manufacturer's instructions and subjected to flow cytometric analysis (FACSCalibur) using HBS as sheath fluid. [Ca^2+]i levels determined by flow cytometry are reported as mean fluorescence intensity expressed in arbitrary units. Time courses of [Ca^2+]i rises in 2D culture are representative of three independent experiments and averaged Δ[Ca^2+]i represents mean±SEM from the sum of three independent experiments. Fura-2 ratio images in 3D culture are representative of two independent experiments and averaged [Ca^2+]i in 3D culture represents mean±SEM from the sum of two independent experiments.

TRPA1 [2] = target: T1, TRPA1; test: AITC-evoked [Ca2+]i rises in TRPA1-enriched MPNST cells; conditions: 10 μM AP-18, 30 μM AITC
Protocol: as §1, with “Time courses of [Ca^2+]i rises in 2D culture are representative of three independent experiments and averaged Δ[Ca^2+]i represents mean±SEM from the sum of three independent experiments. Fura-2 ratio images in 3D culture are representative of two independent experiments and averaged [Ca^2+]i in 3D culture represents mean±SEM from the sum of two independent experiments.” left out

NSCLC cells = test: H2O2- and carboplatin-induced cytotoxicity in NSCLC cells; conditions: TRPA1 expression-dependent
Protocol: (§2) For the measurements of live cell number and cell death under treatment with H2O2, diamide, or chemotherapies, cells were cultured on 96-well plates in the presence or absence of these drugs for indicated times and stained with 5 μM bisBenzimide H 33342 trihydrochloride (Hoechst; Sigma) and 5 μM propidium iodide (PI; Sigma) for 1 h at 37° C. Hoechst- and/or PI-positive cells were counted using a laser scanning cytometer, Acumen Cellista (TTPLabTech). Apoptotic cells induced by H2O2 treatment were measured by staining with Annexin V-Alexa Fluor® 488 conjugate (Life Technologies) and PI in Ca^2+-containing solution (10 mM HEPES pH 7.4, 140 mM NaCl; 2.5 mM CaCl2), followed by flow cytometric measurement of fluorescence using a FACSCalibur. Flow cytometry plots are representative of three independent experiments. […] Viable cells were counted using the Countless Automated Cell Counters (Thermo Fisher Scientific). […] Hoechst- and/or PI-positive areas were measured using Acumen Cellista. Apoptotic cells induced by detachment were measured by staining with 5 μM Hoechst and 5 μM of CellEvent™ Caspase-3/7 Green Detection Reagent (Thermo Fisher Scientific) for 1 h at 37° C. without enzymatic dissociation of cell clumps. Hoechst- and/or CellEvent™ Caspase-3/7 Green Detection Reagent-positive areas were measured using Acumen Cellista. […]

EL-12-58 cells = test: Live cell number and cell death under H2O2 in EL-12-58 cells; conditions: 10 μM AP-18; H2O2 for 72 h
Protocol: as §2

TRPA1 [3] = target: T1, TRPA1; test: AITC-evoked [Ca2+]i rises in TRPA1-enriched NSCLC cells; conditions: 10 μM AP-18, 30 μM AITC
Protocol: as §1, with “Time courses of [Ca^2+]i rises in 2D culture are representative of three independent experiments and averaged Δ[Ca^2+]i represents mean±SEM from the sum of three independent experiments. Fura-2 ratio images in 3D culture are representative of two independent experiments and averaged [Ca^2+]i in 3D culture represents mean±SEM from the sum of two independent experiments.” left out

MPNST cells = test: H2O2- and carboplatin-induced cytotoxicity in MPNST cells; conditions: TRPA1 expression-dependent
Protocol: as §2

T1 sequence (O75762 whole entry): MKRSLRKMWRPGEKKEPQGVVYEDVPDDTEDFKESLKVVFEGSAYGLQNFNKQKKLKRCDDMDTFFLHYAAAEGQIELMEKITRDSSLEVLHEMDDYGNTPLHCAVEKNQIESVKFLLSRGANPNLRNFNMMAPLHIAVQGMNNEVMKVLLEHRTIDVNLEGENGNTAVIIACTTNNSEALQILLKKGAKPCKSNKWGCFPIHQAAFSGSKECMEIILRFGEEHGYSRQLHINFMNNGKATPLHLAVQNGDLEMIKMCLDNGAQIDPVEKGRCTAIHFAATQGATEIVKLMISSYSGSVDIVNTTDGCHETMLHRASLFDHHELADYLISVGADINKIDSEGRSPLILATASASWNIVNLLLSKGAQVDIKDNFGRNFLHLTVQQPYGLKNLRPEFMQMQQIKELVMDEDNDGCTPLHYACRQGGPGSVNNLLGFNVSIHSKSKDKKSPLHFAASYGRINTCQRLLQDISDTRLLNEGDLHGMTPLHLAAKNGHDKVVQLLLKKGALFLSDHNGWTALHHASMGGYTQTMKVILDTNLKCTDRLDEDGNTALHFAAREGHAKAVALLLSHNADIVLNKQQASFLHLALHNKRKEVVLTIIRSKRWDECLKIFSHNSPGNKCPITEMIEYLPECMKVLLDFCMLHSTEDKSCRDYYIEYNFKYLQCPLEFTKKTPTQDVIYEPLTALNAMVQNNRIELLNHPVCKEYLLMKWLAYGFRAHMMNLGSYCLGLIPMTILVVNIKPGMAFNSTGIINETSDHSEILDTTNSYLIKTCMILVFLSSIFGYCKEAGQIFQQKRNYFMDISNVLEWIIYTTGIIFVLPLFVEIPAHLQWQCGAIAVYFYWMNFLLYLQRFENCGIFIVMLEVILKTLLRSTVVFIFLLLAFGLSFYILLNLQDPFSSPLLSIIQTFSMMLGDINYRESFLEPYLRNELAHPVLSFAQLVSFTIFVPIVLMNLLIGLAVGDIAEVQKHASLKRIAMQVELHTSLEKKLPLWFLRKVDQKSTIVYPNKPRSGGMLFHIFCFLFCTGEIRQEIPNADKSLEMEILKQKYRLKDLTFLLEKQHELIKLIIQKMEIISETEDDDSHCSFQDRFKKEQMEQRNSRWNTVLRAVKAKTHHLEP

## AP-18
TRPA1 [1]
  [Ca2+]i rises upon carboplatin treatment: significantly suppressed
  oscillatory Ca2+ responses upon carboplatin treatment: significantly suppressed
TRPA1 [2]
  inhibition of AITC-induced [Ca2+]i rises: abolished
NSCLC cells; 10 μM AP-18, carboplatin 72 h
  sensitization to carboplatin-induced cytotoxicity: sensitized
NSCLC cells
  sensitization to H2O2-induced cytotoxicity: sensitized
EL-12-58 cells
  sensitization to H2O2 cytotoxicity: sensitized
TRPA1 [3]
  inhibition of AITC-induced [Ca2+]i rises: abolished
MPNST cells; 10 μM AP-18, carboplatin 72 h
  sensitization to carboplatin-induced cytotoxicity: sensitized
MPNST cells
  sensitization to H2O2-induced cytotoxicity: sensitized
